Test results published in US20220062240A1, “METHODS OF TREATING CANCER USING A CLK INHIBITOR” (BioSplice Therapeutics, Inc., priority 2018, published 2022).
Where two headings read alike, the source gives them in different places.

How the values were obtained:
CLK3 = CLK3 (Homo sapiens, UniProt P49761); assay: CLK3 kinase activity assay (Z-lyte, Ser/Thr 18 peptide)
MCF7 = assay: CellTiter-Glo Viability Assay, breast cancer; format: cell-based; settings: Homo sapiens, 96 h; MCF7, breast cancer, four days; read-out: EC50
Experimental: (§1) Fifty-one human cancer cell lines (breast cancer (8 cell lines), colorectal cancer (6 cell lines), haematopoietic & lymphoid tumors (13 cell lines), liver cancer (3 cell lines), lung cancer (4 cell lines), ovarian cancer (4 cell lines), pancreatic cancer (8 cell lines), and prostate cancer (5 cell lines)) were tested to determine the effects of representative compounds of Formulas (I)-(XII) on cellular proliferation, as evaluated using the CellTiter-Glo® Viability Assay.
(§2) For the Cell Viability Assays, cells were plated at 300-3,000 cells/well in 384-well plates in their respective media containing 1% Penicillin-Streptomycin and incubated for four days at 37° C. and 5% CO2. Twenty-eight replicates of DMSO-treated cells served as controls and cells treated with compound were performed in duplicate.
(§3) After incubation, 10 μL of CellTiter-Glo® (Promega) was added to each well allowed to incubate for approximately 12 minutes. This reagent results in cell lysis and generation of a luminescent signal proportional to the amount of ATP present. The amount of ATP is directly proportional to the number of metabolically active, viable cells present in culture. The CellTiter-Glo® Assay generates a luminescent signal, produced by the luciferase reaction (Promega.com).
(§4) After incubation, the luminescence signal was read using an EnVision™ Multilabel Plate Reader (Perkin Elmer). Dose-response curves were generated and EC50 concentration values were calculated using Dotmatics' Studies Software (Bishops Stortford, UK).

DU4475 = assay: CellTiter-Glo Viability Assay, breast cancer; format: cell-based; settings: Homo sapiens, DU-4475, 96 h; DU4475, breast cancer, four days; read-out: EC50
Experimental: as §1, §2, §3, §4

T47D = assay: CellTiter-Glo Viability Assay, breast cancer; format: cell-based; settings: Homo sapiens, 96 h, breast cancer, four days, read-out: EC50
Experimental: as §1, §2, §3, §4

ZR-75-1 = assay: CellTiter-Glo Viability Assay, breast cancer; format: cell-based; settings: Homo sapiens, 96 h; ZR-75-1, breast cancer, four days; read-out: EC50
Experimental: as §1, §2, §3, §4

BT-549 = assay: CellTiter-Glo Viability Assay, breast cancer; format: cell-based; settings: Homo sapiens, 96 h; BT-549, breast cancer, four days; read-out: EC50
Experimental: as §1, §2, §3, §4

HCC1599 = assay: CellTiter-Glo Viability Assay, breast cancer; format: cell-based; settings: Homo sapiens, 96 h; HCC1599, breast cancer, four days; read-out: EC50
Experimental: as §1, §2, §3, §4

CAMA1 = assay: CellTiter-Glo Viability Assay, breast cancer; format: cell-based; settings: Homo sapiens, CAMA-1, 96 h; CAMA1, breast cancer, four days; read-out: EC50
Experimental: as §1, §2, §3, §4

[1] = system: liver cancer (3 cell lines); assay: CellTiter-Glo Viability Assay, liver cancer; format: cell-based; settings: Homo sapiens, inhibition of cancer cell proliferation
Experimental: as §1, §2, §3, §4

CLK2 = target: T1, CLK2 (Homo sapiens, UniProt P49760); assay: CLK2 kinase activity assay (Z-lyte, Ser/Thr 6 peptide); format: biochemical; settings: recombinant CLK2 kinase, ATP 60 μM; read-out: EC50
T1 construct: purchased Thermo Fisher (Life Technologies), Z'-LYTE Kinase Assay Kits
T1 sequence (P49760 whole entry): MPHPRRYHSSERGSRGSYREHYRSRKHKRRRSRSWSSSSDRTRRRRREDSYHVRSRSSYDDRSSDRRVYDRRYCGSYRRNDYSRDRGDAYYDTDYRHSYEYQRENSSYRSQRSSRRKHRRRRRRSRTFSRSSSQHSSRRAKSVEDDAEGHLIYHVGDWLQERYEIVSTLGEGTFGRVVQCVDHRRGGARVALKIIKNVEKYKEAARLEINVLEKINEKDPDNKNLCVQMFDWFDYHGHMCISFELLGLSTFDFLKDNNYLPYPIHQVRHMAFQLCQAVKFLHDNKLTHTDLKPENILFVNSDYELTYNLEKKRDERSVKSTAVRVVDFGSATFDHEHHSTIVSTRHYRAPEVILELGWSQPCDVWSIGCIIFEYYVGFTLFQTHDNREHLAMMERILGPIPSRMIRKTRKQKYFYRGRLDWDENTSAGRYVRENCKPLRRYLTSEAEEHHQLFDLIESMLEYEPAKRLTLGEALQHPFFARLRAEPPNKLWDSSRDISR
Experimental: All reactions were performed in duplicate.

[2] = system: haematopoietic & lymphoid tumors (13 cell lines); assay: CellTiter-Glo Viability Assay, haematopoietic & lymphoid tumors; format: cell-based; settings: Homo sapiens, inhibition of cancer cell proliferation
Experimental: as §1, §2, §3, §4

[3] = system: pancreatic cancer (8 cell lines); assay: CellTiter-Glo Viability Assay, pancreatic cancer; format: cell-based; settings: Homo sapiens, inhibition of cancer cell proliferation
Experimental: as §1, §2, §3, §4

[4] = system: prostate cancer (5 cell lines); assay: CellTiter-Glo Viability Assay, prostate cancer; format: cell-based; settings: Homo sapiens
Experimental: as §1, §2, §3, §4

[5] = system: ovarian cancer (4 cell lines); assay: CellTiter-Glo Viability Assay, ovarian cancer; format: cell-based; settings: Homo sapiens, inhibition of cancer cell proliferation
Experimental: as §1, §2, §3, §4

[6] = system: colorectal cancer (6 cell lines); assay: CellTiter-Glo Viability Assay, colorectal cancer; format: cell-based; settings: Homo sapiens, inhibition of cancer cell proliferation
Experimental: as §1, §2, §3, §4

all 50 cell lines = assay: CellTiter-Glo Viability Assay, average across all cell lines; format: cell-based; settings: Homo sapiens; across all 50 cell lines; read-out: average EC50 for inhibition of cancer cell proliferation
Experimental: as §1, §2, §3, §4

[7] = system: lung cancer (4 cell lines); assay: CellTiter-Glo Viability Assay, lung cancer; format: cell-based; settings: Homo sapiens, inhibition of cancer cell proliferation
Experimental: as §1, §2, §3, §4

Sequence of CLK3 (P49761 whole entry): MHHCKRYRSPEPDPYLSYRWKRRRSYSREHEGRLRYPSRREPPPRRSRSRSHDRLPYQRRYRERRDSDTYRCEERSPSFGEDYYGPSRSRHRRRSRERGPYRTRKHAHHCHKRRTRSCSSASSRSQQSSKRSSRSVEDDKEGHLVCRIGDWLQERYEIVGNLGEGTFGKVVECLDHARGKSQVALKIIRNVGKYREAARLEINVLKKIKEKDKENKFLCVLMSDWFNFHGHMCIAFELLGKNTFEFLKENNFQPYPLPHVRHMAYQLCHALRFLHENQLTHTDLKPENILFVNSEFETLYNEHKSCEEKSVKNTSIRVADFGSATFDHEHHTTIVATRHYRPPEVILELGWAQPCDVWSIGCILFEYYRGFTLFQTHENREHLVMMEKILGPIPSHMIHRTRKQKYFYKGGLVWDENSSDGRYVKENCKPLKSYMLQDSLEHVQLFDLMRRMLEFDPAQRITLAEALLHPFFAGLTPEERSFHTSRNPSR

EC50 (CLK3): 24 nM
EC50 (MCF7): 725 nM
EC50 (DU4475): 137 nM
EC50 (T47D): 503 nM
EC50 (ZR-75-1): 410 nM
EC50 (BT-549): 339 nM
EC50 (HCC1599): 165 nM
EC50 (CAMA1): 329 nM
EC50 ([1]; SNU-398, SNU398 cell line, read-out: Liver cancer, EC50 SNU398): 69 nM
EC50 ([1]; HEPG2 cell line, read-out: Liver cancer, EC50 HEPG2): 431 nM
EC50 ([1]; PLC/PRF/5 cell line, read-out: Liver cancer, EC50 PLC/PRF/5): 541 nM
EC50 (CLK2): 2 nM
EC50 ([2]; DND41, DND-41 cell line, read-out: Haematopoietic & Lymphoid tumors, EC50 (μM) DND-41): 0.216 µM
EC50 ([2]; MV4-11, MV-4-11 cell line, read-out: Haematopoietic & Lymphoid tumors, EC50 (μM) MV-4-11): 0.101 µM
EC50 ([2]; Rec1, REC-1 cell line, read-out: Haematopoietic & Lymphoid tumors, EC50 (μM) REC-1): 0.08 µM
EC50 ([2]; SU-DHL-4, SUDHL4 cell line, read-out: Haematopoietic & Lymphoid tumors, EC50 (μM) SUDHL4): 0.317 µM
EC50 ([2]; HL-60 cell line, read-out: Haematopoietic & Lymphoid tumors, EC50 (μM) HL-60): 0.719 µM
EC50 ([2]; JM1 cell line, read-out: Haematopoietic & Lymphoid tumors, EC50 (μM) JM1): 0.093 µM
EC50 ([2]; JURKAT, Clone E6-1 cell line, read-out: Haematopoietic & Lymphoid tumors, EC50 (μM) JURKAT, Clone E6-1): 0.511 µM
EC50 ([2]; JeKo-1 cell line, read-out: Haematopoietic & Lymphoid tumors, EC50 (μM) JeKo-1): 0.073 µM
EC50 ([2]; KASUMI-1 cell line, read-out: Haematopoietic & Lymphoid tumors, EC50 (μM) KASUMI-1): 0.174 µM
EC50 ([2]; Loucy cell line, read-out: Haematopoietic & Lymphoid tumors, EC50 (μM) Loucy): 0.192 µM
EC50 ([2]; MOLT-4 cell line, read-out: Haematopoietic & Lymphoid tumors, EC50 (μM) MOLT-4): 0.327 µM
EC50 ([2]; TF-1 cell line, read-out: Haematopoietic & Lymphoid tumors, EC50 (μM) TF-1): 0.367 µM
EC50 ([2]; TOLEDO cell line, read-out: Haematopoietic & Lymphoid tumors, EC50 (μM) TOLEDO): 0.104 µM
EC50 ([3]; BXPC-3, BxPC3 cell line, read-out: Pancreatic cancer, EC50 BxPC3): 484 nM
EC50 ([3]; CAPAN-1, Capan1 cell line, read-out: Pancreatic cancer, EC50 Capan1): 225 nM
EC50 ([3]; Capan-2, Capan2 cell line, read-out: Pancreatic cancer, EC50 Capan2): 464 nM
EC50 ([3]; MIA PaCa-2 cell line, read-out: Pancreatic cancer, EC50 MIA PaCa-2): 134 nM
EC50 ([3]; PANC 05.04 cell line, read-out: Pancreatic cancer, EC50 PANC 05.04): 323 nM
EC50 ([3]; PANC-1 cell line, read-out: Pancreatic cancer, EC50 PANC-1): 429 nM
EC50 ([3]; UPAFII cell line, read-out: Pancreatic cancer, EC50 UPAFII): 157 nM
EC50 ([4]; DU-145, read-out: Prostate cancer EC50 Du-145): 325 nM
EC50 ([4]; PC-3, PC3 cell line, inhibition of cancer cell proliferation, read-out: Prostate cancer EC50 PC3): 240 nM
EC50 ([4]; 22Rv1 cell line, inhibition of cancer cell proliferation, read-out: Prostate cancer EC50 22Rv1): 263 nM
EC50 ([4]; LNCap clone FGC cell line, inhibition of cancer cell proliferation, read-out: Prostate cancer EC50 LNCap clone FGC): 422 nM
EC50 ([4]; VCaP (Sigma) cell line, inhibition of cancer cell proliferation, read-out: Prostate cancer EC50 VCaP (Sigma)): 588 nM
EC50 ([5]; PA-1, PA1 cell line, read-out: Ovarian cancer, EC50 (μM) PA1): 0.186 µM
EC50 ([5]; TOV112D, TOV-112D cell line, read-out: Ovarian cancer, EC50 (μM) TOV-112D): 0.171 µM
EC50 ([5]; OV-90 cell line, read-out: Ovarian cancer, EC50 (μM) OV-90): 0.464 µM
EC50 ([5]; OVCAR-3 cell line, read-out: Ovarian cancer, EC50 (μM) OVCAR-3): 0.116 µM
EC50 ([6]; HCT-116, HCT116 cell line, read-out: Colorectal cancer, EC50 (μM) HCT116): 0.14 µM
EC50 ([6]; HT-29, HT29 cell line, read-out: Colorectal cancer, EC50 (μM) HT29): 0.295 µM
EC50 ([6]; SW-620, SW620 cell line, read-out: Colorectal cancer, EC50 (μM) SW620): 0.113 µM
EC50 ([6]; DLD-1 cell line, read-out: Colorectal cancer, EC50 (μM) DLD-1): 0.161 µM
EC50 ([6]; SW48 cell line, read-out: Colorectal cancer, EC50 (μM) SW48): 0.096 µM
EC50 ([6]; SW480 cell line, read-out: Colorectal cancer, EC50 (μM) SW480): 0.191 µM
EC50 ([7]; A-427, A427 cell line, read-out: Lung cancer, EC50 (μM) A427): 0.303 µM
EC50 ([7]; HCC78, HCC-78 cell line, read-out: Lung cancer, EC50 (μM) HCC-78): 0.467 µM
EC50 ([7]; NCI-H460 cell line, read-out: Lung cancer, EC50 (μM) NCI-H460): 0.268 µM
EC50 ([7]; NCI-H522 cell line, read-out: Lung cancer, EC50 (μM) NCI-H522): 0.142 µM
SMILES: CN1CCN(c2cc(C(=O)Nc3cc4cc(-c5cn(C)nn5)ccc4cn3)ccn2)CC1 [Compound 14]
EC50 (all 50 cell lines): 289 nM
